Laboratory results taken from ChEMBL document CHEMBL4020753, “Inhibition of amyloid β aggregation and protective effect on SH-SY5Y cells by triterpenoid saponins from the cactus Polaskia chichipe” (Bioorg Med Chem, 2017).
Active and inactive are the calls of the source. No cut-off for these calls is given here.

Molecular target: Amyloid-beta precursor protein (Homo sapiens) (UniProt P05067)
Test: Inhibition of amyloid beta (1 to 42) (unknown origin)-induced cytotoxicity in human SH-SY5Y cells assessed as cell viability at 6.25 uM after 24 hrs by WST8 assay (reference value: 63.1 +/- 5.6%)
Format: cell-based

Amyloid-beta precursor protein (Homo sapiens), sequence (P05067 whole entry): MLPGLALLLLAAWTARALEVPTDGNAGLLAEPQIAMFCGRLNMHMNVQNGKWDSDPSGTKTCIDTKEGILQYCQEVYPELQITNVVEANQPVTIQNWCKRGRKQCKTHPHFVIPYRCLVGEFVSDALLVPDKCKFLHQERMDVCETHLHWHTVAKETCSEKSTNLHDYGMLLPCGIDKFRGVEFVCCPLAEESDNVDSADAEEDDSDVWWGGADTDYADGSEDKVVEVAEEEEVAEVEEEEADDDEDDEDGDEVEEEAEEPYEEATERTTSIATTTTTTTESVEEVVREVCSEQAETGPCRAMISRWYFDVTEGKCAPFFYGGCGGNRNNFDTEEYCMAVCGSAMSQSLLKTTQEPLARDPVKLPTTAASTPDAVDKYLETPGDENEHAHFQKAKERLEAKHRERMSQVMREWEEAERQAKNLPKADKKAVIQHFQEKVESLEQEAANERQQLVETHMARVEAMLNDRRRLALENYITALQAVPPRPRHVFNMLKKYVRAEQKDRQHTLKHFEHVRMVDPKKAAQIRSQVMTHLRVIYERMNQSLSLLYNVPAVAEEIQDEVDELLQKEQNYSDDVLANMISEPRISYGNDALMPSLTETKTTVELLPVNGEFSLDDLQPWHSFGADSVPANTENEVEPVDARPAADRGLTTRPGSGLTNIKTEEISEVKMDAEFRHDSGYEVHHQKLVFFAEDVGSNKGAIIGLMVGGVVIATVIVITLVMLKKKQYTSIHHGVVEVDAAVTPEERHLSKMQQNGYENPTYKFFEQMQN

Row | SMILES | Activity [%]
1 | O=C(OC[C@H]1O[C@@H](OC(=O)c2cc(O)c(O)c(OC(=O)c3cc(O)c(O)c(O)c3)c2)[C@H](OC(=O)c2cc(O)c(O)c(OC(=O)c3cc(O)c(O)c(O)c3)c2)[C@@H](OC(=O)c2cc(O)c(O)c(OC(=O)c3cc(O)c(O)c(O)c3)c2)[C@@H]1OC(=O)c1cc(O)c(O)c(OC(=O)c2cc(O)c(O)c(O)c2)c1)c1cc(O)c(O)c(OC(=O)c2cc(O)c(O)c(O)c2)c1 | 78.8

Molecular target: Amyloid-beta precursor protein (Homo sapiens) (UniProt P05067)
Test: Inhibition of amyloid beta (1 to 42) (unknown origin)-induced cytotoxicity in human SH-SY5Y cells assessed as increase in cell viability at 50 uM after 24 hrs by WST8 assay
Format: cell-based

Row | SMILES | protection from amyloid beta cytotoxicity (active/not active)
2 | C[C@@H]1O[C@@H](O[C@H]2[C@H](O)[C@@H](C(=O)O)O[C@@H](O[C@H]3CC[C@]4(C)[C@H]5CC=C6[C@@H]7CC(C)(C)CC[C@]7(C(=O)O[C@@H]7O[C@H](CO)[C@@H](O)[C@H](O)[C@H]7O)CC[C@@]6(C)[C@]5(C)CC[C@H]4C3(C)C)[C@@H]2O[C@@H]2O[C@H](CO)[C@@H](O)[C@H](O)[C@H]2O)[C@H](O)[C@H](O)[C@H]1O | Active
3 | C[C@@H]1O[C@@H](OC(=O)[C@]23CCC(C)(C)C[C@H]2C2=CC[C@@H]4[C@@]5(C)CC[C@H](O[C@@H]6O[C@H](C(=O)O)[C@@H](O)[C@H](O)[C@H]6O[C@@H]6O[C@H](CO)[C@@H](O)[C@H](O)[C@H]6O[C@@H]6OC[C@@H](O)[C@H](O)[C@H]6O)C(C)(C)[C@@H]5CC[C@@]4(C)[C@]2(C)C[C@@H]3O)[C@H](O)[C@H](O)[C@H]1O | Active
4 | CC(=O)OC[C@]12[C@@H](OC(C)=O)CC(C)(C)C[C@H]1C1=CC[C@@H]3[C@@]4(C)CC[C@H](O[C@@H]5O[C@H](C(=O)O)[C@@H](O)[C@H](O)[C@H]5O[C@@H]5O[C@H](CO)[C@@H](O)[C@H](O)[C@H]5O[C@@H]5O[C@@H](C)[C@H](O)[C@@H](O)[C@H]5O)C(C)(C)[C@@H]4CC[C@@]3(C)[C@]1(C)C[C@@H]2OC(C)=O | inactive
5 | C[C@@H]1O[C@@H](OC(=O)[C@]23CCC(C)(C)C[C@H]2C2=CC[C@@H]4[C@@]5(C)CC[C@H](O[C@@H]6O[C@H](C(=O)O)[C@@H](O)[C@H](O[C@@H]7O[C@@H](C)[C@H](O)[C@@H](O)[C@H]7O)[C@H]6O[C@@H]6O[C@H](CO)[C@@H](O)[C@H](O)[C@H]6O)C(C)(C)[C@@H]5CC[C@@]4(C)[C@]2(C)C[C@@H]3O)[C@H](O)[C@H](O)[C@H]1O | Active
6 | CC1(C)CC[C@]2(C(=O)O[C@@H]3O[C@H](CO)[C@@H](O)[C@H](O)[C@H]3O)CC[C@]3(C)C(=CC[C@@H]4[C@@]5(C)CC[C@H](O[C@@H]6O[C@H](C(=O)O)[C@@H](O)[C@H](O)[C@H]6O[C@@H]6O[C@H](CO)[C@@H](O)[C@H](O)[C@H]6O[C@@H]6OC[C@@H](O)[C@H](O)[C@H]6O)C(C)(C)[C@@H]5CC[C@]43C)[C@@H]2C1 | Active

Molecular target: Amyloid-beta precursor protein (Homo sapiens) (UniProt P05067)
Test: Inhibition of amyloid beta (1 to 42) (unknown origin)-induced cytotoxicity in human SH-SY5Y cells assessed as increase in cell viability at 12.5 uM after 24 hrs by WST8 assay
Format: cell-based

Row | SMILES | inhibition
7 | CC(=O)OC[C@]12[C@@H](OC(C)=O)CC(C)(C)C[C@H]1C1=CC[C@@H]3[C@@]4(C)CC[C@H](O)C(C)(C)[C@@H]4CC[C@@]3(C)[C@]1(C)C[C@@H]2OC(C)=O | inactive
8 | CC1(C)C[C@H](O)[C@]2(CO)[C@@H](O)C[C@]3(C)C(=CC[C@@H]4[C@@]5(C)CC[C@H](O)C(C)(C)[C@@H]5CC[C@]43C)[C@@H]2C1 | inactive
9 | O=C(OC[C@H]1O[C@@H](OC(=O)c2cc(O)c(O)c(OC(=O)c3cc(O)c(O)c(O)c3)c2)[C@H](OC(=O)c2cc(O)c(O)c(OC(=O)c3cc(O)c(O)c(O)c3)c2)[C@@H](OC(=O)c2cc(O)c(O)c(OC(=O)c3cc(O)c(O)c(O)c3)c2)[C@@H]1OC(=O)c1cc(O)c(O)c(OC(=O)c2cc(O)c(O)c(O)c2)c1)c1cc(O)c(O)c(OC(=O)c2cc(O)c(O)c(O)c2)c1 | inactive
10 | CC1(C)CC[C@]2(C(=O)O)[C@@H](O)C[C@]3(C)C(=CC[C@@H]4[C@@]5(C)CC[C@H](O)C(C)(C)[C@@H]5CC[C@]43C)[C@@H]2C1 | inactive
11 | CC1(C)CC[C@]2(C(=O)O)CC[C@]3(C)C(=CC[C@@H]4[C@@]5(C)CC[C@H](O)C(C)(C)[C@@H]5CC[C@]43C)[C@@H]2C1 | inactive

Molecular target: Amyloid-beta precursor protein (Homo sapiens) (UniProt P05067)
Test: Inhibition of amyloid beta (1 to 42) (unknown origin)-induced cytotoxicity in human SH-SY5Y cells assessed as cell viability at 50 uM after 24 hrs by WST8 assay (reference value: 63.1 +/- 5.6%)
Format: cell-based

Row | SMILES | Activity [%]
12 | COC(=O)[C@H]1O[C@@H](O[C@H]2CC[C@]3(C)[C@H]4CC=C5[C@@H]6CC(C)(C)C[C@H](OC(C)=O)[C@]6(COC(C)=O)[C@@H](OC(C)=O)C[C@@]5(C)[C@]4(C)CC[C@H]3C2(C)C)[C@H](O[C@@H]2O[C@H](CO)[C@@H](O)[C@H](O)[C@H]2O[C@@H]2OC[C@@H](O)[C@H](O)[C@H]2O)[C@@H](O)[C@@H]1O | 84.3
13 | CC(=O)OC[C@]12[C@@H](OC(C)=O)CC(C)(C)C[C@H]1C1=CC[C@@H]3[C@@]4(C)CC[C@H](O[C@@H]5O[C@H](C(=O)O)[C@@H](O)[C@H](O)[C@H]5O[C@@H]5O[C@H](CO)[C@@H](O)[C@H](O)[C@H]5O[C@@H]5OC[C@@H](O)[C@H](O)[C@H]5O)C(C)(C)[C@@H]4CC[C@@]3(C)[C@]1(C)C[C@@H]2OC(C)=O | 83.7
14 | COC(=O)[C@H]1O[C@@H](O[C@H]2CC[C@]3(C)[C@H]4CC=C5[C@@H]6CC(C)(C)C[C@H](OC(C)=O)[C@]6(COC(C)=O)[C@@H](OC(C)=O)C[C@@]5(C)[C@]4(C)CC[C@H]3C2(C)C)[C@H](O[C@@H]2O[C@H](CO)[C@@H](O)[C@H](O)[C@H]2O)[C@@H](O[C@@H]2O[C@@H](C)[C@H](O)[C@@H](O)[C@H]2O)[C@@H]1O | 79.2
15 | CC(=O)OC[C@]12[C@@H](OC(C)=O)CC(C)(C)C[C@H]1C1=CC[C@@H]3[C@@]4(C)CC[C@H](O[C@@H]5O[C@H](C(=O)O)[C@@H](O)[C@H](O[C@@H]6O[C@@H](C)[C@H](O)[C@@H](O)[C@H]6O)[C@H]5O[C@@H]5O[C@H](CO)[C@@H](O)[C@H](O)[C@H]5O)C(C)(C)[C@@H]4CC[C@@]3(C)[C@]1(C)C[C@@H]2OC(C)=O | 87.4
